Reference: patent publication US20250034116A1, “1,4-DIHETEROCYCLIC SUBSTITUTED AROMATIC RING OR AROMATIC HETEROCYCLIC COMPOUND AND USE THEREOF” (BeBetter Med Inc., priority 2022, published 2025)

Experiments:
[1] = test system: CYP enzymes in human liver microsomes (HLM); assay: Inhibition of 20-HETE production in human liver microsomes (HLM); type: biochemical
How it was run: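 LC-MS/MS read-out of 20-HETE formation, expressed as activity relative to no-inhibitor control and fitted to a Hill equation for IC50; percent inhibition also given at 1000, 500 or 100 nM. Enzyme sources: recombinant CYP4F2, recombinant CYP4A11, or human or mouse liver microsomes. Each is combined with compound and substrate (400 μM solution) and warmed 10 min at 37 °C, then incubated 25 min at 37 °C after adding NADPH (6 mM solution).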

[2] = test system: CYP enzymes in rat liver microsomes (RLM); assay: Inhibition of 20-HETE production in rat liver microsomes (RLM); type: biochemical
How it was run: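 Test compounds were dissolved in DMSO, diluted in acetonitrile/DMSO (3:1), and 2 μl was mixed with 100 μl potassium phosphate buffer containing rat liver microsomes in a 96-well plate. Duplicate 30 μl aliquots received 15 μl of 400 μM substrate, were preheated at 37° C. for 10 minutes, then started with 15 μl of 6 mM NADPH for 25 minutes. LC-MS/MS measured 20-HETE formation.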

[3] = Pharmacokinetic (PK) experiment, oral administration in rats; type: in vivo, Male SD rats; settings: 20 mg/kg; for AUC(0-inf) / Cmax / Tmax / half-life / AUC(0-t): male, SD, rat, plasma; for AUC(0-t): read-out: AUC0-24
Procedure: Male SD rats, weighing 180-250 grams, were fasted overnight before testing. The test compound was dissolved in 30% sulfobutylether-β-cyclodextrin and administered orally at a dose of 20 mg/kg. Blood was collected from the tail vein at 15 minutes, 30 minutes, and 1, 2, 4, 6, 8, and 24 hours after administration. Approximately 0.3 ml of blood was collected at each time point, placed in a centrifuge tube containing K2-EDTA, and centrifuged (2000 g for 10 minutes at 4° C.) to take the plasma, which was then stored in an ultra-low temperature freezer at −70° C. or below. A 50 μL plasma sample was mixed with 135 μL of acetonitrile (containing 0.5 μg/mL internal standard) and vortexed for protein precipitation. After centrifugation, the supernatant was taken for LC-MS/MS analysis.

[4] = test system: CYP enzymes in mouse liver microsomes (MLM); assay: Inhibition of 20-HETE production in mouse liver microsomes (MLM); type: biochemical
Procedure: (§1) Experimental principle: The inhibitory activity of 20-HETE production is evaluated by testing the inhibitory effects of the compound on human liver microsomes (HLM), rat liver microsomes (RLM), mouse liver microsomes (MLM), or […] CYP4 subtype enzymes (CYP4F2). This assay employs HLM, RLM, or MLM along with recombinant CYP4F2 (rCYP4F2) and recombinant CYP4A11 (rCYP4A11), which are […] CYP4 subtype enzymes, to detect the effects of the test compound at different concentrations on the metabolic rate of enzyme-specific substrates, to determine the inhibitory effects of the test compound on CYP enzymes in HLM, RLM, or MLM.
(§2) Experimental methods: Dissolve the test compound in DMSO, and subsequently dilute it with an acetonitrile and DMSO mixture (3:1). Add 2 μl of varying concentrations of the test compound and 100 μl of potassium phosphate buffer containing either liver microsomes or recombinant enzymes to a 96-well plate. After mixing well, transfer 30 μl to another well (in duplicate), add 15 μl of 400 μM substrate solution, and mix well again. Preheat at 37° C. for 10 minutes, and then add 15 μl of 6 mM NADPH and incubate at 37° C. for 25 minutes. After 25 minutes, add 160 μl of acetonitrile solution (containing 0.1 μg/ml internal standard) to stop the reaction. Mix well, centrifuge at 3500 g for 15 minutes, and then analyze the supernatant using LC-MS/MS.
(§3) Plot the compound concentration on the x-axis and the inhibition rate on the y-axis to draw the curve. Use GraphPad Prism 5 software to fit the curve and calculate the IC50. The formula is Y=Bottom+(Top−Bottom)/(1+10^((Log IC50−X)×HillSlope)). X represents the logarithmic concentration of the inhibitor, and Y represents the relative enzyme activity at a given inhibitor concentration (relative to the condition without the inhibitor).
(§4) Calculate the inhibition percentages at concentrations of 1000 nM, 500 nM, or 100 nM as well as the half-maximal inhibitory concentration (IC50) of the test compound from the above experiment.

[5] = molecular target: recombinant CYP4A11 (rCYP4A11) (Homo sapiens (Human), UniProt Q02928); assay: Inhibition of 20-HETE production by recombinant CYP4A11; type: biochemical; settings: read-out: rCYP4A11 (% inh @ 100 nM)
recombinant CYP4A11 (rCYP4A11), sequence (Q02928 5-519): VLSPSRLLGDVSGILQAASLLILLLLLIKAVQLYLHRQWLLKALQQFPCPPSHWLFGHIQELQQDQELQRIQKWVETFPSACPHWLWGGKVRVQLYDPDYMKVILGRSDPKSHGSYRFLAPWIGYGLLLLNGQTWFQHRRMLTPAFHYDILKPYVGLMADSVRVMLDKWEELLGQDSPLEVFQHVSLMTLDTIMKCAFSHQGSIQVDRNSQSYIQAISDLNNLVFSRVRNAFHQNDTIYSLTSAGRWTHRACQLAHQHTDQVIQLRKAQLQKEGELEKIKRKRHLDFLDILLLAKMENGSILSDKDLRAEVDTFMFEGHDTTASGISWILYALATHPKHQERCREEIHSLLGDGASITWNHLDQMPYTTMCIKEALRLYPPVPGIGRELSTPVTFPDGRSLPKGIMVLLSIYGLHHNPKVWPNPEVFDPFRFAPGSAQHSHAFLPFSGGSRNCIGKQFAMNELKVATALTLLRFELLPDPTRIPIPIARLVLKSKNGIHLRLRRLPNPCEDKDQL
Procedure: as §1, §2, §3, §4

[6] = molecular target: recombinant CYP4F2 (rCYP4F2) (Homo sapiens (Human), UniProt P78329); assay: Inhibition of 20-HETE production by recombinant CYP4F2; type: biochemical; settings: read-out: rCYP4F2 (% inh @ 100 nM)
recombinant CYP4F2 (rCYP4F2), sequence (P78329 5-520): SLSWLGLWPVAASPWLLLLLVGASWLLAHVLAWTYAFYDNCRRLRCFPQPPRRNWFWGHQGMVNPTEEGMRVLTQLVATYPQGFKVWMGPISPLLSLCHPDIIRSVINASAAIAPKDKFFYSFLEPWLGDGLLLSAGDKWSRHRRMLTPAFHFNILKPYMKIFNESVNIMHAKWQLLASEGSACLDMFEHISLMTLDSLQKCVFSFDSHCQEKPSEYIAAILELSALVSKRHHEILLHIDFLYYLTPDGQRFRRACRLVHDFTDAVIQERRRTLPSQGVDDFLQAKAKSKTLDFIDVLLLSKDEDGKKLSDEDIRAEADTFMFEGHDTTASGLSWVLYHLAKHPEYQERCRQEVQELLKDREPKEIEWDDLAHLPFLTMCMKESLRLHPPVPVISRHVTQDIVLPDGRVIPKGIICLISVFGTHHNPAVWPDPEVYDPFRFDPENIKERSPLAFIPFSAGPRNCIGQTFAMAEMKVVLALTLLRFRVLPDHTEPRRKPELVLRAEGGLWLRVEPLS
Procedure: as §1, §2, §3, §4

SMILES	IC50 [1]	HLM (% inh @ 500 nM) [1]	IC50 [2]	absorption and blood exposure after oral administration (in words) [3]	AUC(0-inf) [3]	Cmax [3]	Tmax [3]	half-life [3]	AUC(0-t) [3]	IC50 [4]	inhibition at 0.1 µM [5]	inhibition at 0.1 µM [6]	RLM (% inh @ 500 nM) [2]
O=C(N1CCCC1)N1CCN(c2ccc(-c3cn[nH]c3)c(F)c2F)CC1 [Compound 72, (4-(2,3-difluoro-4-(1H-pyrazol-4-yl)phenyl)piperazin-1-yl)(pyrrolidin-1-yl) methanone]	19.1 nM	89.73%	5.36 nM	well absorbed and exhibit high blood exposure	86 µg·h/mL	7880 ng/mL	2.33 h	2.51 h	85.8 µg·h/mL	1330 nM	50.6%	70.1%	–
O=C1CCCCN1CC1CCN(c2ccc(-c3cn[nH]c3)cc2)CC1 [Compound 25, 1-((1-(4-(1H-pyrazol-4-yl)phenyl)piperidin-4-yl)methyl)piperidin-2-one]	29.3 nM	80.65%	159 nM	–	–	–	–	–	–	766 nM	30.6%	56%	61.49%
O=C1CCCN1CC1CCN(c2ccc(-c3cn[nH]c3)c(F)c2)CC1 [Compound 3, 1-((1-(3-fluoro-4-(1H-pyrazol-4-yl)phenyl)piperidin-4-yl)methyl)pyrrolidin-2-one]	–	75.59%	322 nM	–	–	–	–	–	–	–	27.8%	64.2%	–
O=C1CCCN1CC1CCN(c2ccc(-c3ccno3)cc2)CC1 [Compound 34, 1-((1-(4-(isoxazol-5-yl)phenyl)piperidin-4-yl)methyl)pyrrolidin-2-one]	–	71.06%	–	–	–	–	–	–	–	–	1.59%	49.7%	83.75%
O=C(C1CCN(c2ccc(-c3cn[nH]c3)cc2)CC1)N1Cc2ccccc2C1 [Compound 66, (1-(4-(1H-pyrazol-4-yl)phenyl)piperidin-4-yl)(isoindolin-2-yl) methanone]	–	69.53%	–	well absorbed and exhibit high blood exposure	486 µg·h/mL	26800 ng/mL	3.33 h	12.5 h	364 µg·h/mL	–	9.25%	70.5%	64.35%
O=C1CCCN1CC1CCN(c2ccc(-c3cn[nH]c3)cc2)C1 (stereo not shown) [Compound 74, 1-((1-(4-(1H-pyrazol-4-yl)phenyl)pyrrolidin-3-yl)methyl)pyrrolidin-2-one]	–	72.44%	–	–	–	–	–	–	–	–	17.5%	52.8%	47.19%
O=C(C1CCN(c2ccc(-c3cn[nH]c3)cc2)CC1)N1CCCC1 [Compound 49, (1-(4-(1H-pyrazol-4-yl)phenyl)piperidin-4-yl)(pyrrolidin-1-yl) methanone]	–	79.80%	521 nM	–	–	–	–	–	–	–	23.3%	42.4%	44.31%
